{
  "source": "BindingDB's records for doi:10.1016/j.bmcl.2005.05.109",
  "about": "(Merck Research Laboratories, 2005)",
  "assay": "Inhibition concentration (binding affinity) against […] melanocortin receptor 4 by displacement of [125I]NDP-alpha-MSH from the human receptors expressed in CHO cells",
  "data": [
    {"smiles": "CN1C[C@H]2CC[C@@H]1[C@H](C(=O)N[C@H](Cc1ccc(F)cc1)C(=O)N1CCC(C(=O)NC(C)(C)C)(C3CCCCC3)CC1)C2", "note": "[(1R,4S,6R)-2-Methyl-2-aza-bicyclo[2.2.2]octane-6-carboxylic acid [(R)-2-(4-tert-butylcarbamoyl-4-cyclohexyl-piperidin-1-yl)-1-(4-fluoro-benzyl)-2-oxo-ethyl]-amide]", "values": [
      {"measurement": "IC50", "value": 7, "unit": "µM"}
    ]}
  ]
}
